Where a SMILES comes first, the peptide text is derived from it.

B1: MIP-1β: CCR5 selective chemokine ligand (protein)
chain: APMGSDPPTACCFSYTARKLPRNFVVDYYETSSLCSQPAVVFQTKRSKQVCADPSESWVQEYVYDLELN

In one experiment the target is T1, CCR5 (Homo sapiens, UniProt P51681).
T1 construct: expressed in transfected cells; host or cells: ChfTh-CCR5 expressing cells (so in the source)
T1 sequence (P51681 whole entry): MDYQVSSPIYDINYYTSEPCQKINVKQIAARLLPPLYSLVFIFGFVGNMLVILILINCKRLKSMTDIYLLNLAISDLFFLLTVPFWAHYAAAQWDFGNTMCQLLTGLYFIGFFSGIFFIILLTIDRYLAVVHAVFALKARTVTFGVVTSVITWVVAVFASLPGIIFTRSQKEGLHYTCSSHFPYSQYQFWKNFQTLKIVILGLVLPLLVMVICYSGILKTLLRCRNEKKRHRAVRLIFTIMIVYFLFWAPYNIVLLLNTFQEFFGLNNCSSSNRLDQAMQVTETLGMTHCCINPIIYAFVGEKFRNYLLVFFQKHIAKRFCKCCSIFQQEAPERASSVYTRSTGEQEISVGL
The experiment can be described thus: biochemical. The format is binding.
Conditions: not given
As to the method: (§1) The antiviral assays are described in detail in the prior art (Ruff et al., 2001, Antiviral Res, 52, 63-75), which is hereby incorporated by reference, and will be here described only briefly.
(§2) We prepared a novel FITC-labeled tracer from soluble gp120 proteins (25 μg/ml) using a Fluorescent Protein labeling kit (Roche Diagnostics GmBh). Binding assays were performed in binding buffer containing 50mM HEPES (Gibco), pH=7.4, 5 mM MgCl2, 1 mM CaCl2.6H20 (Sigma), 5% BSA (Sigma) and 0.1% NaN3, final volume 100 μl. Binding was carried out for 1 h at 37° C. in 96-well filter plates (Millipore) using several CCR5 expressing lines, as indicated. Unbound labeled proteins were removed by rapid vacuum filtration and washing using a 96-well plate manifold. Filters were counted with a fluorescent plate reader (Hewlett Packard) at 495/530 nm. Non-specific binding was determined in the absence of sCD4 and was subtracted from the gp120-FITC binding in presence of 100 nM sCD4 (total binding).
The term EC50 denotes the concentration at which the effect is half-maximal. Read a low EC50 as higher potency in that assay. On to `N=C(N)NCCC[C@H](NC(=O)[C@H](Cc1ccc(O)cc1)NC(=O)[C@H](CCCNC(=N)N)NC(=O)[C@H](CC(N)=O)NC(=O)[C@@H](N)CC(N)=O)C(=O)O` [NNRYR] (H-NNRYR-OH), for which it took 0.2 nM to reach a half-maximal effect (EC50).

Turning to `N=C(N)NCCC[C@H](NC(=O)[C@H](Cc1ccc(O)cc1)NC(=O)[C@H](CCC(=O)O)NC(=O)[C@H](CO)NC(=O)[C@@H](N)CC(N)=O)C(=O)O` [NSEYR] (H-NSEYR-OH), the EC50 was 0.08 nM.

Molecule `NC(=O)C[C@H](NC(=O)[C@H](CO)NC(=O)[C@@H](N)CC(N)=O)C(=O)N[C@@H](Cc1ccc(O)cc1)C(=O)N[C@@H](CO)C(=O)O` [NSNYS] (H-NSNYS-OH) came in with an EC50 of 0.5 nM.

Take `N=C(N)NCCC[C@H](NC(=O)[C@H](Cc1ccc(O)cc1)NC(=O)[C@H](CO)NC(=O)[C@H](CO)NC(=O)[C@@H](N)CC(N)=O)C(=O)O` [NSSYR] (H-NSSYR-OH): the response was half-maximal at 0.04 nM (EC50).

`C[C@@H](O)[C@H](NC(=O)[C@H](Cc1ccc(O)cc1)NC(=O)[C@H](CO)NC(=O)[C@H](CO)NC(=O)[C@@H](N)CC(N)=O)C(=O)O` [NSSYT] (H-NSSYT-OH) showed a concentration giving a half-maximal response (EC50) of 0.2 nM.

For `C[C@@H](O)[C@H](NC(=O)[C@@H](N)CC(N)=O)C(=O)N[C@@H](CO)C(=O)N[C@@H](Cc1ccc(O)cc1)C(=O)N[C@@H](CCCNC(=N)N)C(=O)O` [NTSYR] (H-NTSYR-OH), the EC50 amounted to 0.1 nM.

With `N=C(N)NCCC[C@H](NC(=O)[C@H](Cc1ccc(O)cc1)NC(=O)[C@H](CCC(=O)O)NC(=O)[C@H](CO)NC(=O)[C@@H](N)CO)C(=O)O` [SSEYR] (H-SSEYR-OH), it took 0.3 nM to reach a half-maximal effect (EC50).

Turning to `CC[C@H](C)[C@H](NC(=O)[C@@H](N)[C@@H](C)O)C(=O)N[C@@H](CO)C(=O)N[C@@H](Cc1ccc(O)cc1)C(=O)N[C@@H](CCCNC(=N)N)C(=O)O` [TISYR] (H-TISYR-OH), the concentration for a half-maximal effect (EC50) worked out at 0.4 nM.

In turn, `C[C@@H](O)[C@H](N)C(=O)N[C@@H](CO)C(=O)N[C@@H](CC(N)=O)C(=O)N[C@@H](Cc1ccc(O)cc1)C(=O)N[C@@H](CO)C(=O)O` [TSNYS] (H-TSNYS-OH) showed a concentration for a half-maximal effect (EC50) of 0.2 nM.

`C[C@@H](O)[C@H](N)C(=O)N[C@H](C(=O)N[C@@H](CO)C(=O)N[C@@H](Cc1ccc(O)cc1)C(=O)N[C@@H](CCCNC(=N)N)C(=O)O)[C@@H](C)O` [TTSYR] (H-TTSYR-OH) came in with a concentration for a half-maximal effect (EC50) of 0.1 nM.

As to `C[C@@H](O)[C@H](N)C(=O)N[C@H](C(=O)N[C@@H](CO)C(=O)N[C@@H](Cc1ccc(O)cc1)C(=O)N[C@H](C(=O)O)[C@@H](C)O)[C@@H](C)O` [TTSYT] (H-TTSYT-OH), the EC50 turned out to be 0.05 nM.

In the case of `N=C(N)NCCC[C@H](NC(=O)[C@H](Cc1ccc(O)cc1)NC(=O)[C@H](CO)NC(=O)[C@H](CO)NC(=O)[C@@H](N)Cc1ccc(O)cc1)C(=O)O` [YSSYR] (H-YSSYR-OH), the EC50 came to 0.6 nM.

The next experiment concerns the target T1, CCR5.
Assay: not given
To be noted: 10 nM. In kind it is binding. Here is the method:
as §1, §2
These studies are illustrated in FIG. 4. Total specific binding was defined as the difference in binding of FITIC-gp120 with or without added sCD4 (100 nM).
Data shown (panels A-C) are the mean and […] of three experiments, each with triplicate determinations. Analyses were performed by PRISM.
B1: the “inhibition of binding of gp120 proteins Bal and CM235” value is “inhibited”.

Staying with this experiment, now noted: gp120BaL/sCD4, Cf2Th/synR5 cells.
Turning to B1, the “inhibition of binding of gp120BaL/sCD4 to CCR5” value is listed as “completely inhibited”.

For the origin of these results see patent US10973906B2, “Therapeutic peptides and vaccines” (priority 2005, dated 2021).
